Read-outs that look alike come from different tables or passages of the source.
Key:
[1] = system: HCV replicon cells Huh 9B; format: cell-based
[2] = system: HCV replicon cells Huh 9B; experiment: HCV replicon assay (luciferase readout); format: cell-based
Summary of the method: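 Compounds, made up at twice final strength (final DMSO 1%), were added to subgenomic replicon cells one day after plating. Incubation then ran 72 h at 37 °C, 5% CO2, without G418. Replication was quantified as firefly luciferase luminescence in lysed cells, with cytotoxicity assessed on a duplicate clear plate.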

[3] = concentration reducing total cell area by 50% relative to DMSO controls, methylene blue, absorbance 620 nm, 72 h incubation
[4] = Hepatitis C virus, 72 h, concentration reducing replicon level (luciferase activity) by 50% vs untreated cell control, 72 h incubation

Row | Compound | TD50 [1] | IC50 [2] [nM] | TD50 [1, 3] | IC50 [2, 4] [nM]
1 | CNC(=O)c1ccc(NC(=O)c2ccc(C)c(-c3ccc(C(=O)Nc4ccc(CN5CCS(=O)(=O)CC5)cc4)cc3)c2)cc1 [Example 141, 6-Methyl-biphenyl-3,4′-dicarboxylic acid 4′-{[4-(1,1-dioxo-1lambda*6*-thiomorpholin-4-ylmethyl)-phenyl]-amide} 3-[(4-methylcarbamoyl-phenyl)-amide]] | * (key: * < 50 μM; ** > 50 μM) | 1000 to 5000 |  | 
2 | Cc1ccc(C(=O)Nc2ccc(C(=O)N(C)C)cc2)cc1-c1ccc(C(=O)Nc2ccc(CN3CCS(=O)(=O)CC3)cc2)cc1 [Example 142, 6-Methyl-biphenyl-3,4′-dicarboxylic acid 3-[(4-dimethylcarbamoyl-phenyl)-amide] 4′-{[4-(1,1-dioxo-1lambda*6*-thiomorpholin-4-ylmethyl)-phenyl]-amide}] | * (key: * < 50 μM; ** > 50 μM) | 1000 to 5000 |  | 
3 | CCc1nnc(NC(=O)c2ccc(C)c(-c3ccc(C(=O)Nc4ccc(CN5CCS(=O)(=O)CC5)cc4)cc3)c2)s1 [Example 143, 6-Methyl-biphenyl-3,4′-dicarboxylic acid 4′-{[4-(1,1-dioxo-1lambda*6*-thiomorpholin-4-ylmethyl)-phenyl]-amide} 3-[(5-ethyl-[1,3,4]thiadiazol-2-yl)-amide]] | * (key: * < 50 μM; ** > 50 μM) | 1000 to 5000 |  | 
4 | Cc1ccc(C(=O)Nc2ccc(C(=O)N3CCCCC3)cc2)cc1-c1ccc(C(=O)Nc2ccc(CN3CCS(=O)(=O)CC3)cc2)cc1 [Example 144, 6-Methyl-biphenyl-3,4′-dicarboxylic acid 4′-{[4-(1,1-dioxo-1lambda*6*-thiomorpholin-4-ylmethyl)-phenyl]-amide} 3-{[4-(piperidine-1-carbonyl) -phenyl]-amide}] | * (key: * < 50 μM; ** > 50 μM) | 1000 to 5000 |  | 
5 | Cc1cc(NC(=O)c2ccc(C)c(-c3ccc(C(=O)Nc4ccc(CN5CCS(=O)(=O)CC5)cc4)cc3)c2)sn1 [Example 145, 6-Methyl-biphenyl-3,4′-dicarboxylic acid 4′-{[4-(1,1-dioxo-1lambda*6*-thiomorpholin-4-ylmethyl)-phenyl]-amide} 3-[(3-methyl-isothiazol-5-yl)-amide]] | * (key: * < 50 μM; ** > 50 μM) | 1000 to 5000 |  | 
6 | Cc1ccc(C(=O)NCC2CCCCC2)cc1-c1ccc(C(=O)Nc2ccc(CN3CCS(=O)(=O)CC3)cc2)cc1 [Example 146, 6-Methyl-biphenyl-3,4′-dicarboxylic acid 3-cyclohexylmethyl-amide 4′-{[4-(1,1-dioxo-1lambda*6*-thiomorpholin-4-ylmethyl)-phenyl]-amide}] | * (key: * < 50 μM; ** > 50 μM) | < 1000 |  | 
7 | Cc1ccc(C(=O)NC2CCCCCC2)cc1-c1ccc(C(=O)Nc2ccc(CN3CCS(=O)(=O)CC3)cc2)cc1 [Example 147, 6-Methyl-biphenyl-3,4′-dicarboxylic acid 3-cycloheptylamide 4′-{[4-(1,1-dioxo-1lambda*6*-thiomorpholin-4-ylmethyl)-phenyl]-amide}] | * (key: * < 50 μM; ** > 50 μM) | 1000 to 5000 |  | 
8 | Cc1ccc(C(=O)NC2CCCC2)cc1-c1ccc(C(=O)Nc2ccc(CN3CCS(=O)(=O)CC3)cc2)cc1 [Example 148, 6-Methyl-biphenyl-3,4′-dicarboxylic acid 3-cyclopentylamide 4′-{[4-(1,1-dioxo-1lambda*6*-thiomorpholin-4-ylmethyl)-phenyl]-amide}] | * (key: * < 50 μM; ** > 50 μM) | 1000 to 5000 |  | 
9 | Cc1ccc(NC(=O)C2CC2)cc1-c1ccc(NC(=O)c2ccc(CN3CCS(=O)(=O)CC3)cc2)cc1 [Example 149, N-[5′-(Cyclopropanecarbonyl-amino)-2′-methyl-biphenyl-4-yl]-4-(1,1-dioxo-1lambda*6*-thiomorpholin-4-ylmethyl)-benzamide] |  |  | * (* < 50 μM) | < 1000
10 | Cc1ccc(NC(=O)C2CCCCC2)cc1-c1ccc(NC(=O)c2ccc(CN3CCS(=O)(=O)CC3)cc2)cc1 [Example 150, N-[5′-(Cyclohexanecarbonyl-amino)-2′-methyl-biphenyl-4-yl]-4-(1,1-dioxo-1lambda*6*-thiomorpholin-4-ylmethyl)-benzamide] |  |  | * (* < 50 μM) | < 1000
11 | Cc1ccc(C(=O)Nc2ccc(N3CCOCC3)cc2)cc1-c1ccc(NC(=O)c2ccc(CN3CCS(=O)(=O)CC3)cc2)cc1 [Example 151, 4′-[4-(1,1-Dioxo-1lambda*6*-thiomorpholin-4-ylmethyl)-benzoylamino]-6-methyl-biphenyl-3-carboxylic acid (4-morpholin-4-yl-phenyl)-amide] |  |  | * (* < 50 μM) | < 1000
12 | Cc1ccc(NC(=O)N2CCOCC2)cc1-c1ccc(C(=O)Nc2ccc(CN3CCS(=O)(=O)CC3)cc2)cc1 [Example 152, Morpholine-4-carboxylic acid {4′-[4-(1,1-dioxo-1lambda*6*-thiomorpholin-4-ylmethyl)-phenylcarbamoyl]-6-methyl-biphenyl-3-yl}-amide] |  |  | ** (** > 50 μM) | < 1000
13 | Cc1ccc(NC(=O)c2ccco2)cc1-c1ccc(C(=O)Nc2ccc(CN3CCS(=O)(=O)CC3)cc2)cc1 [Example 153, Furan-2-carboxylic acid {4′-[4-(1,1-dioxo-1lambda*6*-thiomorpholin-4-ylmethyl)-phenylcarbamoyl]-6-methyl-biphenyl-3-yl}-amide] |  |  | * (* < 50 μM) | < 1000
14 | Cc1ccc(NC(=O)c2ccc(Br)cc2)cc1-c1ccc(C(=O)Nc2ccc(CN3CCS(=O)(=O)CC3)cc2)cc1 [Example 154, 5′-(4-Bromo-benzoylamino)-2′-methyl-biphenyl-4-carboxylic acid [4-(1,1-dioxo-1lambda*6*-thiomorpholin-4-ylmethyl)-phenyl]-amide] |  |  | * (* < 50 μM) | < 1000
15 | Cc1ccc(NC(=O)c2cccs2)cc1-c1ccc(C(=O)Nc2ccc(CN3CCS(=O)(=O)CC3)cc2)cc1 [Example 155, Thiophene-2-carboxylic acid {4′-[4-(1,1-dioxo-1lambda*6*-thiomorpholin-4-ylmethyl)-phenylcarbamoyl]-6-methyl-biphenyl-3-yl}-amide] |  |  | * (* < 50 μM) | < 1000
16 | Cc1ccc(NC(=O)c2cccnc2)cc1-c1ccc(C(=O)Nc2ccc(CN3CCS(=O)(=O)CC3)cc2)cc1 [Example 156, N-{4′-[4-(1,1-Dioxo-1lambda*6*-thiomorpholin-4-ylmethyl)-phenylcarbamoyl]-6-methyl-biphenyl-3-yl}-nicotinamide] |  |  | * (* < 50 μM) | 1000 to 5000
17 | Cc1ccc(NC(=O)c2cccn2C)cc1-c1ccc(C(=O)Nc2ccc(CN3CCS(=O)(=O)CC3)cc2)cc1 [Example 157, 1-Methyl-1H-pyrrole-2-carboxylic acid {4′-[4-(1,1-dioxo-1lambda*6*-thiomorpholin-4-ylmethyl)-phenylcarbamoyl]-6-methyl-biphenyl-3-yl}-amide] |  |  | * (* < 50 μM) | < 1000
18 | Cc1ccc(NC(=O)C2CCCCC2)cc1-c1ccc(C(=O)Nc2ccc(CN3CCS(=O)(=O)CC3)cc2)cc1 [Example 158, 5′-(Cyclohexanecarbonyl-amino)-2′-methyl-biphenyl-4-carboxylic acid [4-(1,1-dioxo-1lambda*6*-thiomorpholin-4-ylmethyl)-phenyl]-amide] |  |  | * (* < 50 μM) | < 1000

— patent publication US8008303B2, “Biphenyl derivatives and their use in treating hepatitis C” (AstraZeneca AB, priority 2005, dated 2011)
